PMC2358886, “Evolution of pharmacologic specificity in the pregnane X receptor” (BMC Evolutionary Biology, 2008)
Entries after “also recorded” stand apart in the source; their conditions may differ. Where two headings read alike, the source gives them in different places.

Assays:
rat PXR [1] = target: T1, rat PXR (Rattus norvegicus, UniProt Q9R1A7)
T1 sequence (Q9R1A7 1-431): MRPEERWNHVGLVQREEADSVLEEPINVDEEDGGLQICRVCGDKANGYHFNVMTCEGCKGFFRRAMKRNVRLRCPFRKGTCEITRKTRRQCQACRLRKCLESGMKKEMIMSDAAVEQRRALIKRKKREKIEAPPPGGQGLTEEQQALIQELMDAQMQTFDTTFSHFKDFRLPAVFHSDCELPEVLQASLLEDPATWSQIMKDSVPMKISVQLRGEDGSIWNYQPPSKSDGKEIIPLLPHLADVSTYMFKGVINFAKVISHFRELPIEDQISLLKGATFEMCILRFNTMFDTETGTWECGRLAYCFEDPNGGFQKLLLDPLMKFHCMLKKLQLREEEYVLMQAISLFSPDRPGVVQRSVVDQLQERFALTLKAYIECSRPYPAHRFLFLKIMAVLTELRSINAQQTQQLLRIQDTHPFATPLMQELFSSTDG

mouse PXR = target: T2, mouse PXR (Mus musculus, UniProt O54915)
T2 sequence (O54915 1-431): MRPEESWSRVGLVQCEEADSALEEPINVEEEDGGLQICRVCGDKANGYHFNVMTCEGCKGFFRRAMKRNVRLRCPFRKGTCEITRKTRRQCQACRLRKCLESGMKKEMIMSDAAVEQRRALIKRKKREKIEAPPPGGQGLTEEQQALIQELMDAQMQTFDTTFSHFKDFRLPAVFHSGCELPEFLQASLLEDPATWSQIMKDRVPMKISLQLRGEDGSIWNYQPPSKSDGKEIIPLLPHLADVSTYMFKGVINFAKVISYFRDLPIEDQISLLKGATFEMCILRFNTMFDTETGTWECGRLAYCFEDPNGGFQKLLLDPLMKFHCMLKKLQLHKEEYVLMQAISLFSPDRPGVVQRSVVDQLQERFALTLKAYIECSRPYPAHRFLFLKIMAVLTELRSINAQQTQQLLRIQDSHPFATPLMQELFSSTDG

rabbit PXR [2] = target: T3, rabbit PXR (Oryctolagus cuniculus, UniProt Q9TU02)
T3 sequence (Q9TU02 1-411): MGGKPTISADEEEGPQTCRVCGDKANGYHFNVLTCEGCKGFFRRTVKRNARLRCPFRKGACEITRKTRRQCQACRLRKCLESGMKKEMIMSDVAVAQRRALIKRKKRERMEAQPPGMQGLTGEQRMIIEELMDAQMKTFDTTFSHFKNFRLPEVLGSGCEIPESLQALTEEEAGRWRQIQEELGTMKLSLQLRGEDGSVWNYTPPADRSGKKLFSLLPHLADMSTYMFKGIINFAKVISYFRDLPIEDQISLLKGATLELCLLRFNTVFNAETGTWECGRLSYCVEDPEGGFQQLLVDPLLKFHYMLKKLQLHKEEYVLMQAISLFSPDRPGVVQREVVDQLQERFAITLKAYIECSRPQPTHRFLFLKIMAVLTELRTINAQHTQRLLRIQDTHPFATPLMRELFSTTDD

chicken PXR [3] = target: T4, chicken PXR (Gallus gallus, UniProt Q9DFH3); conditions: for Chicken PXR Activity: -log(EC50), EC50 in molar units
T4 sequence (Q9DFH3 1-391): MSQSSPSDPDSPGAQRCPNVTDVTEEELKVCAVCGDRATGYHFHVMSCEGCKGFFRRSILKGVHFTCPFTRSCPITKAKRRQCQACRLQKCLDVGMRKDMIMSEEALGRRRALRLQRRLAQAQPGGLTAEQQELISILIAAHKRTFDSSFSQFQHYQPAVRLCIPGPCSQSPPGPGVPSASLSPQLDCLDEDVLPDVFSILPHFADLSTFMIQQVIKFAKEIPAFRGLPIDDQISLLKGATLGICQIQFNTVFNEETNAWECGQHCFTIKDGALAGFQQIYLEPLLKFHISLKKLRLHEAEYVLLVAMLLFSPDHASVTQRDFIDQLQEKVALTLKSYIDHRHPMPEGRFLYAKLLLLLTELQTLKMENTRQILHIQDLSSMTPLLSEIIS

Ciona VDR/PXR = test: Activation of Ciona VDR/PXR (LBD/GAL4 chimeric receptor) luciferase reporter assay; assay type: cell-based, Ciona intestinalis; conditions: screening, reference maximal activator 20 μM 6-formylindolo-[3,2-b]carbazole
Excerpt: The LBD of Ciona VDR/PXR was cloned from cDNA fragments generously provided by Professors Yuji Kohara and Norituki Satoh, and then inserted into the PM2-GAL4 plasmid to create an LBD/GAL4 chimeric receptor.
The LBD of Xenopus tropicalis (Western clawed frog) PXR (xtPXR) was cloned by PCR from RNA extracted from ovary of an adult female frog. Ciona VDR/PXR was cloned from cDNA fragments ciem829d05 and cilv048e18 provided by Professor Yuji Kohara (Center for Genetic Resource Information, National Institute of Genetics, Research Organization of Information and Systems, Mishima, Japan) and Professor Noriyuki Satoh (Kyoto University, Kyoto, Japan), with analysis of the cDNA clones supported by Grant-in-aid for Scientific Research on Priority Area "Genome" of Ministry of Education, Culture, Sports, Science and Technology, Japan.
The creation of a HepG2 (human liver) cell line stably expressing the human Na^+-taurocholate cotransporter (NTCP) has been previously reported. HepG2-NTCP cells were grown in modified Eagle's medium-α containing 10% fetal bovine serum and 1% penicillin/streptomycin (Invitrogen, Carlsbad, CA, USA). Plasmids containing cDNAs for 8 PXRs from 7 species (human, mouse, rat, rabbit, chicken [also called chicken X receptor, CXR], African clawed frog [also termed Xenopus laevis benzoate X receptors α and β, BXRα and BXRβ ], zebrafish), as well as the reporter constructs tk-UAS-Luc and CYP3A4-PXRE-Luc, and 'empty' vectors pCDNA, PsG5, and PM2 were generously provided by SA Kliewer, JT Moore, and LB Moore (GlaxoSmithKline, Research Triangle Park, NC, USA). […] For the full-length expression vectors, the reporter plasmid was CYP3A4-PXRE-Luc, a construct that contains a promoter element from CYP3A4 (recognized by PXR DBDs) driving luciferase expression. For the GAL4/LBD expression constructs, the reporter plasmid was tk-UAS-Luc, which contains GAL4 DNA binding elements driving luciferase expression. The following transfection ratios of reporter, receptor, and β-galactosidase plasmids were used (ng/well): human, mouse, rabbit, and rat PXRs – 25/2.7/20; chicken PXR – 10/1/20; Xenopus tropicalis PXR, zebrafish PXR, and Ciona VDR/PXR – 75/50/20.
The PXR activation assay was a luciferase-based reporter assay. On day 1, 30,000 cells/well were seeded onto 96-well white opaque plates (Corning-Costar, Corning, NY, USA). On day 2, cells were transfected using the calcium phosphate precipitation method with expression vector or 'empty' control vector and luciferase reporter plasmid. On day 3, the cells were washed and then incubated with medium containing charcoal-dextran treated fetal bovine serum (Hyclone, Logan, UT, USA) and drugs or vehicle. On day 4, the cells were washed and the medium replaced with serum-free medium. […]

zebrafish PXR [4] = target: T5, zebrafish PXR (Danio rerio, UniProt A5WYG8)
T5 sequence (A5WYG8 144-430): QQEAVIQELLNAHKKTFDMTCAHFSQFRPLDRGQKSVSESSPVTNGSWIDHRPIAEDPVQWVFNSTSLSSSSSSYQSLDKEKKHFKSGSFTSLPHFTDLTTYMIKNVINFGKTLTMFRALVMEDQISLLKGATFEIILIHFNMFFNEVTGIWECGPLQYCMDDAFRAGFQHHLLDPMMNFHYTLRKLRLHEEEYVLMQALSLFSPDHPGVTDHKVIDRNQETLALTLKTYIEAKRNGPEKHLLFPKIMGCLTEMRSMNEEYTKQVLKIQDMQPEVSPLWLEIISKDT

human PXR [5] = target: T6, human PXR (Homo sapiens, UniProt O75469)
T6 sequence (O75469 1-434): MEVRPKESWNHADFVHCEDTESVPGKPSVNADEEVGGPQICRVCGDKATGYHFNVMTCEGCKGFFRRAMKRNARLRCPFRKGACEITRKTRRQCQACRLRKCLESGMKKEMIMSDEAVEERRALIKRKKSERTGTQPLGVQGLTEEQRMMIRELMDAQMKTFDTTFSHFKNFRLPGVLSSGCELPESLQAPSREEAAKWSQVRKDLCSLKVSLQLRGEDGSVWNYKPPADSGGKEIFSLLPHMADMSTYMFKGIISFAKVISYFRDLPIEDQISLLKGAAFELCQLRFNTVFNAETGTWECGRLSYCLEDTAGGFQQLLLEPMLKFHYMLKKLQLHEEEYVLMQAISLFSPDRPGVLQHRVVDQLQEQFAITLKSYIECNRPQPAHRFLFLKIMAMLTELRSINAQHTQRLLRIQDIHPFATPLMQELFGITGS

rabbit PXR [6] = target: T3, rabbit PXR; test: PXR activation luciferase reporter assay, rabbit PXR; conditions: -log(EC50), EC50 in molar units
chicken PXR [7] = target: T4, chicken PXR; test: cell-based
zebrafish PXR [8] = target: T5, zebrafish PXR; test: cell-based
rat PXR [9] = target: T1, rat PXR; test: cell-based
Xenopus tropicalis PXR = test: Activation of Xenopus tropicalis PXR (GAL4-LBD chimeric construct) luciferase reporter assay; assay type: cell-based
Method: Cloning of the LBD of this PXR from adult female ovary and expression in a GAL4-LBD chimeric construct allowed for determination of ligand specificity.
The PXR activation assay was a luciferase-based reporter assay [17, 45]. On day 1, 30,000 cells/well were seeded onto 96-well white opaque plates (Corning-Costar, Corning, NY, USA). On day 2, cells were transfected using the calcium phosphate precipitation method with expression vector or 'empty' control vector and luciferase reporter plasmid. On day 3, the cells were washed and then incubated with medium containing charcoal-dextran treated fetal bovine serum (Hyclone, Logan, UT, USA) and drugs or vehicle. […]

chicken PXR [10] = target: T4, chicken PXR; test: in vitro
human PXR [11] = target: T6, human PXR; test: PXR activation luciferase reporter assay, human PXR in HepG2-NTCP cells; conditions: hPXR Activity, -log(EC50), EC50 in molar units, activation of human PXR
[12] = -log(EC50), EC50 in molar units, activation of zebrafish PXR
[13] = -log(EC50), EC50 in molar units

C[C@H](CCC(=O)O)[C@H]1CC[C@H]2[C@@H]3C[C@@H](O)[C@@H]4C[C@H](O)CC[C@]4(C)[C@H]3CC[C@]12C [BI004, Murideoxycholic acid]
Rat PXR Activity (rat PXR [1]): 4.80 | Mouse PXR Activity (mouse PXR): 5.09 | Rabbit PXR Activity (rabbit PXR [2]): 4.52 | Chicken PXR Activity (chicken PXR [3]): No effect

6-formylindolo-[3,2-b]carbazole
Activation of Ciona VDR/PXR (in words) (Ciona VDR/PXR): low micromolar range; also recorded: robustly activated

C[C@H](CCC(O)C(CO)COS(=O)(=O)O)[C@H]1CC[C@H]2[C@@H]3[C@H](O)C[C@@H]4C[C@H](O)CC[C@]4(C)[C@H]3C[C@H](O)[C@]12C (stereo partly drawn) [BI034, 5β-Cholestan-3α,7α,12α,24,26-pentol-27-sulfate]
zfPXR Efficacy (zebrafish PXR [4]): 0.13 | zfPXR Activity (zebrafish PXR [4]; [12]): 4.35 | Activation of zebrafish PXR (in words) (zebrafish PXR [4]; bile salts): activated | Rat PXR efficacy, ε (rat PXR [1]): 0.85 | Rat PXR Activity (rat PXR [1]; [13]): 4.40 | Mouse PXR efficacy, ε (mouse PXR): 0.85 | Mouse PXR Activity (mouse PXR; [13]): 4.44 | hPXR Efficacy (human PXR [5]): 0.39 | Rabbit PXR Activity (rabbit PXR [6]): 4.09 | Toxicity (HepG2 cells): 200 µM | Rabbit PXR efficacy, ε (rabbit PXR [2]): 1.93 | Chicken PXR efficacy, ε (chicken PXR [3]): 0.88 | Chicken PXR Activity (chicken PXR [3]): 4.37

C[C@H](CCC(=O)O)[C@H]1CC[C@H]2[C@@H]3[C@H](O)C[C@@H]4C[C@H](O)CC[C@]4(C)[C@H]3CC[C@]12C [BI005, Chenodeoxycholic acid]
Rat PXR Activity (rat PXR [1]): No effect | Rabbit PXR efficacy, ε (rabbit PXR [2]; rabbit): 4.70 (ε = 0.42) | Chicken PXR efficacy, ε (chicken PXR [3]; chicken): 4.70 (ε = 0.36) | EC50 (chicken PXR [7]): 20 µM

CCCCOC(=O)c1ccc(N)cc1 [MI4, n-Butyl-4-aminobenzoate]
EC50 (zebrafish PXR [8]): 13.8 µM | EC50 (rat PXR [9]): > 100 µM | zfPXR Efficacy (zebrafish PXR [4]; zebrafish): 0.69 | hPXR Efficacy (human PXR [5]; human): 1.35 | Toxicity (HepG2 cells; human, 24 hr): 100 µM | Activation of Xenopus tropicalis PXR (in words) (Xenopus tropicalis PXR): activates | Activation of Ciona VDR/PXR (in words) (Ciona VDR/PXR; listed as n-butyl p-aminobenzoate): Weaker activation | Activation of Ciona VDR/PXR (in words) (Ciona VDR/PXR; listed as n-butyl-p-aminobenzoate): micromolar range | EC50 (chicken PXR [10]): > 100 µM

CC(CCC[C@@H](C)[C@H]1CC[C@H]2[C@@H]3[C@H](O)C[C@@H]4C[C@H](O)CC[C@]4(C)[C@H]3C[C@H](O)[C@]12C)C(=O)NCCS(=O)(=O)O (stereo partly drawn) [BI038, 3α,7α,12αtTrihydroxy-5β-cholestan-27-oic acid, taurine conjugated]
zfPXR Activity (zebrafish PXR [4]; [12]): None | Rat PXR Activity (rat PXR [1]): No effect | Mouse PXR Activity (mouse PXR): No effect | hPXR Activity (human PXR [5]): None | Toxicity (HepG2 cells): 200 µM | Rabbit PXR Activity (rabbit PXR [2]): No effect | Chicken PXR Activity (chicken PXR [3]): No effect

NC(=O)N1c2ccccc2C=Cc2ccccc21 [MI7, Carbamazepine]
zfPXR Activity (zebrafish PXR [4]): None | Toxicity (HepG2 cells; human, 24 hr): 200 µM | Activation of Ciona VDR/PXR (in words) (Ciona VDR/PXR): micromolar range; also recorded: Weaker activation | EC50 (human PXR [11]): 63.1 µM
